US11246818B2, “Peptides and compositions for use in cosmetics” (LIPOTRUE, S.L., priority 2017, dated 2022)
Residues, ends and D or L forms follow the SMILES beside them.

What was measured:
[1] = test system: Primary human epidermal keratinocytes; assay: Protection against oxidative stress (reactive oxygen species) induced by hydrogen peroxide; format: cell-based; conditions: all concentrations tested
Experimental: Columns from left to right in the x-axis of FIG. 4(A) correspond to: basal state (cells to which no treatment is applied), positive control, negative control of oxidation (sample treated with 1 mM ascorbic acid) and treatments with Ac-SEQ ID NO: 1-NH2 concentrations of 0.001 mg/ml, 0.005 mg/ml and 0.01 mg/ml, respectively. […] Columns from left to right in the x-axis of FIG. 3(B) correspond to: basal state (cells to which no treatment is applied), positive control, negative control (sample treated with 1 mM ascorbic acid) and treatments with Ac-SEQ ID NO: 2-NH2 concentrations of 0.001 mg/ml, 0.005 mg/ml, 0.01 mg/ml and 0.05 mg/ml, respectively.
Primary human epidermal keratinocytes were seeded in black 96 well-plates in the corresponding culture medium and, 48 hours later, treated with the different compounds analysed (Ac-SEQ ID NO: 1-NH2 or Ac-SEQ ID NO: 2-NH2) for 3 hours at 37° C. or with ascorbic acid as an antioxidant control. After incubation, cells were loaded with a fluorescence probe for 45 minutes and then H2O2 was added for 30 minutes.
Finally, fluorescence was determined at Excitation 485 nm/Emission 520 nm.

HEKa cells = assay: Modulation of the expression of antioxidant genes (RTqPCR); format: cell-based, human; conditions: 0.05 mg/mL, 24 hours
From the text: Changes in gene expression levels are represented as a positive or negative fold-change with regard to the basal control (untreated cells). Bars from top to bottom in the y-axis refer to: CYP2R1 (Vitamin D 25-hydroxylase), NFE2L2 (Nuclear factor-like 2), HMOX1 (Heme oxygenase-1), GSTP1 (Glutathione S-transferase P), GSS (Glutathione synthetase), GPX1 (Glutathione peroxidase) and TRX (Thioredoxin). The x-axis refers to fold change versus or with regard to the basal control.
Briefly, HEKa cells were seeded in duplicate in 6-well plates at a density of 4×10^5 cells/well and maintained at standard culture conditions (37° C., 95% humidity, 5% CO2) for 24 hours. Then, cells were treated with non-cytotoxic concentrations of Ac-SEQ ID NO: 1-NH2 (0.05 mg/mL) for an additional 24 hours.
Untreated cells were used as basal control. Cells were then lysed for RNA extraction with a RNA purification commercial kit following manufacturer instructions (RNeasy mini kit; Qiagen; Netherlands). RNA was then quantified by nanodrop, adjusted in concentration and processed for retrotranscription to cDNA using a commercially available kit (High-Capacity cDNA Reverse Transcription kit; Thermofisher Scientific, USA). Resulting cDNA was used to perform a RTqPCR (Real Time Quantitative Polymerase Chain Reaction) using Taqman technology and a panel of probes designed to target specific genes related to melanogenesis and HEMn-HEKa and HEMn-HDFa communication.

**Q.** Which “activity against hydrogen peroxide induced reactive oxygen species compared with Ac-SEQ ID NO: 2-NH2” value [1] does the source give for `CC(=O)N[C@@H](CC(=O)O)C(=O)N[C@@H](Cc1ccc(O)cc1)C(=O)N[C@@H](CCCCN)C(=O)N[C@H](C(N)=O)C(C)C` [Ac-SEQ ID NO: 1-NH2, Ac-Asp-Tyr-Lys-Val-NH2] (Ac-DYKV-NH2) here?
**A.** Its value is “increased activity in all concentrations tested”.

**Q.** And the “CYP2R1 gene expression, fold change versus basal control” value (HEKa cells)?
**A.** Its value is 1.44 fold change.

**Q.** And the “GPX1 gene expression, fold change versus basal control” value (HEKa cells)?
**A.** Its value is 1.22 fold change.

**Q.** What about the “GSS gene expression, fold change versus basal control” value (HEKa cells) of the same molecule?
**A.** Its value is 1.10 fold change.

**Q.** What about the “GSTP1 gene expression, fold change versus basal control” value (HEKa cells) of the same molecule?
**A.** The value was 1.13 fold change.

**Q.** What about the “HMOX1 gene expression, fold change versus basal control” value (HEKa cells) of the same molecule?
**A.** Its value is 1.48 fold change.

**Q.** And the “NFE2L2 gene expression, fold change versus basal control” value (HEKa cells)?
**A.** The value was 1.23 fold change.

**Q.** What about the “TRX gene expression, fold change versus basal control” value (HEKa cells) of the same molecule?
**A.** The value was 1.34 fold change.
